We go through one compound from patent publication US8455469B2, “Use of norgestimate as a selective inhibitor of TRPC3, TRPC6 and TRPC7 ion channels” (Sanofi, priority 2007, dated 2013).

In test [1] the target is T1, TRPC5 (Homo sapiens, UniProt Q9UL62).
T1 construct: expressed in transfected cells; host or cells: HEK293 FITR (inducible expression)
T1 sequence (Q9UL62 1-973): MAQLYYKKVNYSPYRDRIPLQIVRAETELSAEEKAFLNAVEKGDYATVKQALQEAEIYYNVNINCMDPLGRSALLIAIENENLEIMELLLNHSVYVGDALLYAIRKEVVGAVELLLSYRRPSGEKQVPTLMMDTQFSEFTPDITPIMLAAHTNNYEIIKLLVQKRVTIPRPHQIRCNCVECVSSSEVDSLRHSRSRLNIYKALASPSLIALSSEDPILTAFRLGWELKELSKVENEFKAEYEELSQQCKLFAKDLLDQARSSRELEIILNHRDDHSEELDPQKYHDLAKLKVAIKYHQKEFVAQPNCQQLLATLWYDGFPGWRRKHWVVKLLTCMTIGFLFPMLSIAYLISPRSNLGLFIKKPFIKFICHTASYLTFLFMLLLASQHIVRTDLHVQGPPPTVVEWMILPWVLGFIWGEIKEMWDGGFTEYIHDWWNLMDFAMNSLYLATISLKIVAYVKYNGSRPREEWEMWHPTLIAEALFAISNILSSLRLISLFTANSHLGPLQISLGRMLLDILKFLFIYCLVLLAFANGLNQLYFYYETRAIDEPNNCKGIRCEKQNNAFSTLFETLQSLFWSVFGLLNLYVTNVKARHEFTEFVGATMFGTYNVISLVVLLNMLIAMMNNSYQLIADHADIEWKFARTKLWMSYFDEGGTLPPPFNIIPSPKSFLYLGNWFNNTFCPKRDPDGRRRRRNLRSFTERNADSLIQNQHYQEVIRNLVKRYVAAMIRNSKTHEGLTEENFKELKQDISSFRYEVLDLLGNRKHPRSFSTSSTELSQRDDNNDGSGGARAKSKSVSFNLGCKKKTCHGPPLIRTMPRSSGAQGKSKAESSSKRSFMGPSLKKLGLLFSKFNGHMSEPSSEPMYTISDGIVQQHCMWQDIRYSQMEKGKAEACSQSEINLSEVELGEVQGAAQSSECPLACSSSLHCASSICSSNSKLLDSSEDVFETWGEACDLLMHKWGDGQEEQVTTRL
The test can be described thus: Whole-cell patch clamp, AlF4- activated TRPC5 HEK293 cells. The class given is cell-based. The settings on record: 10 μM, -70 mV, n=20. The procedure:
Channels were indirectly excited with the same stimulus for better comparability of the norgestimate effect. Aluminium tetrafluoride (AIF^4−) applied intracellularly via the patch pipette activates G-proteins by mimicking GTP (Sternweis & Gilman, 1982; Bigay et al., 1987).
Since these channels are potentiated by micromolar La^3+ concentrations (Jung et al., 2003), 2-aminoethoxydiphenyl borate (2-APB), a characterized TRPC5 blocker (Xu et al., 2005) was used instead.
Effect of 10 μM norgestimate (NG) on whole-cell currents evoked by AlF4^− infusion into induced TRPC6— (A) and TRPC5 HEK 293 (B) cells. Whole cell currents recorded at −70 mV (left panels) and the corresponding current-voltage (I-V) relationships are shown (right panels). […] The curves were obtained during voltage ramps from −100 to +80 mV. (C) Statistical analysis of the norgestimate effect on TRPC5— and TRPC6-mediated currents.

Test [2] deals with T1, TRPC5. The test can be described thus: FLIPR Ca2+ influx measurement, trypsin-stimulated TRPC5 HEK293 cells. Type of test: cell-based. The settings on record: 200 nM trypsin. From the text: In general, cells are provided which express a TRPC channel. Such cells can be produced using genetic methods known to a person skilled in the art. After having induced the expression of the TRPC channel, cells are usually plated into e.g. microtiter plates and grown. Usually the cells grow at the bottom of multiwell plates and are fixed. Thereafter, the cells are generally washed and loaded with a dye in a suitable loading buffer, preferably with a fluorescent dye such as fluo4am. After having removed the loading buffer, the cells are incubated with the test compound or modulator, in particular with a biochemical or chemical test compound as described above, e.g. in the form of a chemical compound library. Ca^2+ measurements can be carried out using e.g. a Fluorescence Imaging Plate Reader (FLIPR). To stimulate Ca^2+ influx through the TRPC channel a channel activator such as OAG should generally be applied.
When these experiments were performed, no direct physiological stimuli of TRPC4 and TRPC5 were known. Therefore, both channels had to be stimulated indirectly, e.g. by application of trypsin, a protease-activated receptor (PAR) stimulating protease. […] Kinetics and quantity of calcium store release in cells treated with 30 μM norgestimate were not changed compared to untreated cells. […]

“Also recorded” adds a separate entry of the source. Where only a bound is given, the exact number is not on record here.

One may read the IC50 as the concentration that inhibits the measured activity by half. Take `C#C[C@]1(OC(C)=O)CC[C@H]2[C@@H]3CCC4=C/C(=N/O)CC[C@@H]4[C@H]3CC[C@@]21CC` [norgestimate, D-17β-acetoxy-B-ethyl-17α ethinyl-gon-4-en-3-one oxime]: at TRPC5 [1], the TRPC5 current blocked turned out to be 25.9±5.7%. For the same compound, the “inhibitory effect on TRPC5-mediated Ca2+ influx” value at TRPC5 [2] (30 μM norgestimate) is on record as “only small inhibitory effects; also recorded: slightly reduced”. For the same compound, the concentration for half-maximal inhibition (IC50) against TRPC5 [2] (FLIPR, n=4) is above 30 µM.
